From PubChem BioAssay (NCI)
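96-well plates; 48 h exposure; 5 concentrations. Endpoints by linear interpolation between flanking doses. Not reached: highest tested concentration assigned. GI50 = concentration required for 50% inhibition of growth. The concentration for full growth arrest is given as TGI.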

Tests used:
Test in all cases: inhibition of tumour cell growth, NCI panel, 48 h
[1] = test system: HOP-92 NSCLC
[2] = test system: MCF7 breast
[3] = test system: MDA-N
[4] = test system: KM20L2 colon
[5] = test system: SF-295 CNS
[6] = test system: EKVX NSCLC
[7] = test system: T-47D breast
[8] = test system: SF-539 CNS
[9] = test system: COLO 205 colon
[10] = test system: SNB-19 CNS

Row | Compound | TGI [1] [µM] | TGI [2] [µM] | TGI [3] [µM] | TGI [4] [µM] | TGI [5] [µM] | TGI [6] [µM] | TGI [7] [µM] | TGI [8] [µM] | TGI [9] [µM] | TGI [10] [µM] | GI50 [1] [µM] | GI50 [4] [µM] | GI50 [5] [µM] | GI50 [6] [µM] | GI50 [8] [µM] | GI50 [9] [µM] | GI50 [10] [µM]
1 | N#CC1(C2SCCS2=O)C2=C(C(=O)c3ccccc3C2=O)N2CCCC21 (stereo not drawn) | 11.9 | 3.73 | 1.55 | 19.3 | 7.82 | 13.9 | 8.16 | 9.11 | 5.71 | 16.8 | – | – | – | – | – | – | –
2 | CC(=O)OCC1OC([S-])C(OC(C)=O)C(OC(C)=O)C1OC(C)=O.CC[PH+](CC)CC.CC[PH+](CC)CC.[Au].[Au] (stereo not drawn) | 0.584 | – | – | 2.2 | 1.63 | 0.921 | – | 0.624 | 0.391 | 0.552 | 0.28 | 0.792 | 0.436 | 0.405 | 0.18 | 0.198 | 0.197
3 | CCOC(=O)c1[nH]c(COC(C)=O)c(CCCOC(C)=O)c1CCCOC(C)=O | > 100 | – | – | > 100 | > 100 | > 100 | – | > 100 | > 100 | > 100 | – | – | – | – | – | – | –
4 | CCOC(=O)C1N(S(=O)(=O)c2ccc(C)cc2)CCC12C(c1ccc(OC)cc1)NC1CCCCC12 (stereo not drawn) | 80.9 | – | – | > 100 | > 100 | > 100 | – | > 100 | > 100 | > 100 | – | – | – | – | – | – | –
5 | CCOC(=O)[C@H](CCCNC(=O)OC(C)(C)C)NCc1ccc(OC)c(OC)c1 | > 100 | – | – | > 100 | > 100 | > 100 | – | > 100 | > 100 | > 100 | – | – | – | – | – | – | –
6 | NC1CCCC[C@H]1N.N[C@@H]1CCCC[C@@H]1N.O=C(P(=O)([O-])[O-])P(=O)([O-])[O-].[Pt+4].[Pt+4] | > 100 | – | – | > 100 | > 100 | > 100 | – | > 100 | > 100 | > 100 | > 100 | > 100 | 96.7 | > 100 | > 100 | > 100 | > 100
7 | CC(C)(C)N1CC2(CCCCC2)C1=O | > 100 | – | – | > 100 | > 100 | > 100 | – | > 100 | > 100 | > 100 | – | – | – | – | – | – | –
8 | N#CC(/C(=N/NC(=O)C(=O)NN)C(=O)NC12CC3CC(CC(C3)C1)C2)c1ccccc1 (stereo not drawn) | > 100 | – | – | > 100 | > 100 | > 100 | – | > 100 | > 100 | > 100 | – | – | – | – | – | – | –
